What was measured:
[1] = xn = mol fraction of the nth substance listed; conditions: 101 kPa, Liquid; for speed of sound: Sing-around technique in a fixed-path interferometer; for mass density: Vibrating tube method
[2] = refractive index (Na D-line) (dimensionless); xn = mol fraction of the nth substance listed; conditions: 101 kPa, Liquid, Standard Abbe refractometry

CCC[N+]1(C)CCCC1.O=S(=O)([N-]S(=O)(=O)C(F)(F)F)C(F)(F)F + CCCO
Conditions | mass density, 298.15 K [kg/m3] | mass density, 303.15 K [kg/m3] | mass density, 308.15 K [kg/m3] | refractive index, 298.15 K | refractive index, 303.15 K | refractive index, 308.15 K | speed of sound, 298.15 K [m/s] | speed of sound, 303.15 K [m/s] | speed of sound, 308.15 K [m/s]
[1], x2 = 0 | 1427.86 | 1423.26 | 1418.83 | – | – | – | 1270.6 | 1259.5 | 1248.6
[1], x2 = 0.0938 | 1411.16 | 1406.64 | 1402.12 | – | – | – | 1265.5 | 1254.3 | 1243.4
[1], x2 = 0.1942 | 1390.36 | 1385.82 | 1381.28 | – | – | – | 1259.2 | 1248 | 1236.8
[1], x2 = 0.3092 | 1361.8 | 1357.24 | 1352.68 | – | – | – | 1250.8 | 1239.4 | 1228.1
[1], x2 = 0.3925 | 1336.96 | 1332.37 | 1327.8 | – | – | – | 1243.8 | 1232.2 | 1220.8
[1], x2 = 0.5031 | 1296.59 | 1291.99 | 1287.39 | – | – | – | 1233 | 1221.2 | 1209.4
[1], x2 = 0.6035 | 1249.57 | 1244.97 | 1240.35 | – | – | – | 1221.4 | 1209.3 | 1197.2
[1], x2 = 0.6084 | 1246.93 | 1242.32 | 1237.71 | – | – | – | 1220.8 | 1208.7 | 1196.6
[1], x2 = 0.6973 | 1192.26 | 1187.68 | 1183.08 | – | – | – | 1209.2 | 1196.7 | 1184.2
[1], x2 = 0.8048 | 1102.79 | 1098.29 | 1093.76 | – | – | – | 1194.6 | 1181.5 | 1168.3
[1], x2 = 0.8994 | 988.76 | 984.42 | 980.03 | – | – | – | 1187.7 | 1173.4 | 1159.1
[1], x2 = 0.9465 | 912.36 | 908.13 | 903.87 | – | – | – | 1192 | 1176.5 | 1161.2
[2], x2 = 0 | – | – | – | 1.42064 | 1.41926 | 1.41782 | – | – | –
[2], x2 = 0.0938 | – | – | – | 1.41963 | 1.41825 | 1.41678 | – | – | –
[2], x2 = 0.1942 | – | – | – | 1.41841 | 1.41693 | 1.4155 | – | – | –
[2], x2 = 0.3092 | – | – | – | 1.41669 | 1.41521 | 1.41375 | – | – | –
[2], x2 = 0.3925 | – | – | – | 1.41523 | 1.41377 | 1.41227 | – | – | –
[2], x2 = 0.5031 | – | – | – | 1.41287 | 1.41135 | 1.40984 | – | – | –
[2], x2 = 0.6035 | – | – | – | 1.41013 | 1.40858 | 1.40703 | – | – | –
[2], x2 = 0.6084 | – | – | – | 1.40996 | 1.40837 | 1.40681 | – | – | –
[2], x2 = 0.6973 | – | – | – | 1.40685 | 1.40519 | 1.40364 | – | – | –
[2], x2 = 0.8048 | – | – | – | 1.40163 | 1.40019 | 1.39885 | – | – | –
[2], x2 = 0.8994 | – | – | – | 1.39494 | 1.39356 | 1.39205 | – | – | –
[2], x2 = 0.9465 | – | – | – | 1.39023 | 1.38843 | 1.38653 | – | – | –

CCC[N+]1(C)CCCC1.O=S(=O)([N-]S(=O)(=O)C(F)(F)F)C(F)(F)F + CO
Conditions | mass density, 298.15 K [kg/m3] | mass density, 303.15 K [kg/m3] | mass density, 308.15 K [kg/m3] | refractive index, 298.15 K | refractive index, 303.15 K | refractive index, 308.15 K | speed of sound, 298.15 K [m/s] | speed of sound, 303.15 K [m/s] | speed of sound, 308.15 K [m/s]
[1], x2 = 0 | 1427.86 | 1423.26 | 1418.83 | – | – | – | 1270.6 | 1259.5 | 1248.6
[1], x2 = 0.0462 | 1423.37 | 1418.86 | 1414.35 | – | – | – | 1268.8 | 1257.7 | 1246.8
[1], x2 = 0.0901 | 1418.77 | 1414.23 | 1409.69 | – | – | – | 1266.9 | 1255.8 | 1244.9
[1], x2 = 0.1769 | 1408.88 | 1404.34 | 1399.8 | – | – | – | 1262.7 | 1251.6 | 1240.6
[1], x2 = 0.2722 | 1396.02 | 1391.43 | 1386.85 | – | – | – | 1257.1 | 1246 | 1234.9
[1], x2 = 0.3855 | 1376.42 | 1371.67 | 1367.04 | – | – | – | 1248.7 | 1237.4 | 1226.2
[1], x2 = 0.568 | 1329.02 | 1324.31 | 1319.61 | – | – | – | 1228.6 | 1217 | 1205.7
[1], x2 = 0.685 | 1279.72 | 1274.95 | 1270.18 | – | – | – | 1208.5 | 1196.8 | 1185.2
[1], x2 = 0.798 | 1201.72 | 1196.89 | 1192.05 | – | – | – | 1180.4 | 1168.2 | 1156.1
[1], x2 = 0.8984 | 1075.97 | 1071.1 | 1066.22 | – | – | – | 1144.6 | 1131.4 | 1118.3
[1], x2 = 0.9467 | 973.15 | 968.3 | 963.44 | – | – | – | 1124.5 | 1110.3 | 1096.2
[2], x2 = 0 | – | – | – | 1.42064 | 1.41926 | 1.41782 | – | – | –
[2], x2 = 0.0462 | – | – | – | 1.42002 | 1.41862 | 1.41719 | – | – | –
[2], x2 = 0.0901 | – | – | – | 1.41937 | 1.41801 | 1.41659 | – | – | –
[2], x2 = 0.1769 | – | – | – | 1.41794 | 1.41675 | 1.41551 | – | – | –
[2], x2 = 0.2722 | – | – | – | 1.41609 | 1.41503 | 1.4136 | – | – | –
[2], x2 = 0.3855 | – | – | – | 1.41327 | 1.41206 | 1.41063 | – | – | –
[2], x2 = 0.568 | – | – | – | 1.40659 | 1.4055 | 1.404 | – | – | –
[2], x2 = 0.685 | – | – | – | 1.39953 | 1.39832 | 1.39695 | – | – | –
[2], x2 = 0.798 | – | – | – | 1.38838 | 1.38703 | 1.38569 | – | – | –
[2], x2 = 0.8984 | – | – | – | 1.37031 | 1.36877 | 1.36712 | – | – | –
[2], x2 = 0.9467 | – | – | – | 1.35498 | 1.35335 | 1.35185 | – | – | –

CCC[N+]1(C)CCCC1.O=S(=O)([N-]S(=O)(=O)C(F)(F)F)C(F)(F)F + CCO
Conditions | mass density, 298.15 K [kg/m3] | mass density, 303.15 K [kg/m3] | mass density, 308.15 K [kg/m3] | refractive index, 298.15 K | refractive index, 303.15 K | refractive index, 308.15 K | speed of sound, 298.15 K [m/s] | speed of sound, 303.15 K [m/s] | speed of sound, 308.15 K [m/s]
[1], x2 = 0 | 1427.86 | 1423.26 | 1418.83 | – | – | – | 1270.6 | 1259.5 | 1248.6
[1], x2 = 0.016 | 1425.68 | 1421.16 | 1416.65 | – | – | – | 1269.2 | 1258.2 | 1247.2
[1], x2 = 0.0703 | 1418.06 | 1413.56 | 1409.05 | – | – | – | 1266.3 | 1255.2 | 1244.3
[1], x2 = 0.0986 | 1413.89 | 1409.36 | 1404.83 | – | – | – | 1264.6 | 1253 | 1242.6
[1], x2 = 0.2816 | 1380.66 | 1376.07 | 1371.48 | – | – | – | 1252.4 | 1241.1 | 1229.9
[1], x2 = 0.4082 | 1349.44 | 1344.8 | 1340.16 | – | – | – | 1241 | 1229.5 | 1218.2
[1], x2 = 0.5143 | 1315.09 | 1310.32 | 1305.65 | – | – | – | 1228.8 | 1217.2 | 1205.7
[1], x2 = 0.6077 | 1275.55 | 1270.84 | 1266.14 | – | – | – | 1215.8 | 1203.9 | 1192.1
[1], x2 = 0.7059 | 1219.23 | 1214.5 | 1209.77 | – | – | – | 1198.4 | 1186.2 | 1174
[1], x2 = 0.8034 | 1138.92 | 1134.21 | 1129.48 | – | – | – | 1177.6 | 1164.7 | 1151.9
[1], x2 = 0.9002 | 1015 | 1010.37 | 1005.72 | – | – | – | 1155 | 1140.9 | 1127
[1], x2 = 0.9468 | 927.02 | 922.49 | 917.93 | – | – | – | 1146.8 | 1131.8 | 1117
[2], x2 = 0 | – | – | – | 1.42064 | 1.41926 | 1.41782 | – | – | –
[2], x2 = 0.016 | – | – | – | 1.42045 | 1.41907 | 1.41766 | – | – | –
[2], x2 = 0.0703 | – | – | – | 1.41973 | 1.41834 | 1.4169 | – | – | –
[2], x2 = 0.0986 | – | – | – | 1.41935 | 1.41789 | 1.41649 | – | – | –
[2], x2 = 0.2816 | – | – | – | 1.41621 | 1.41485 | 1.41339 | – | – | –
[2], x2 = 0.4082 | – | – | – | 1.41338 | 1.412 | 1.41052 | – | – | –
[2], x2 = 0.5143 | – | – | – | 1.41021 | 1.40877 | 1.40732 | – | – | –
[2], x2 = 0.6077 | – | – | – | 1.40661 | 1.40521 | 1.40398 | – | – | –
[2], x2 = 0.7059 | – | – | – | 1.40144 | 1.39995 | 1.39878 | – | – | –
[2], x2 = 0.8034 | – | – | – | 1.39395 | 1.39236 | 1.39104 | – | – | –
[2], x2 = 0.9002 | – | – | – | 1.38228 | 1.38064 | 1.37888 | – | – | –
[2], x2 = 0.9468 | – | – | – | 1.37383 | 1.372 | 1.37027 | – | – | –
